According to the supplement of paper PMC11061612:

Columns and labels:
[1] = system: KYSE-140 (Esophageal Squamous Cell Carcinoma); experiment: Bliss excess, mean over the matrix (fraction); higher = more synergy
Procedure, shortened: (§1)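 Cell lines grown in DMEM/F12 or RPMI with 10% FBS were plated in 1536-well plates and held 24 hours at 37°C, 5% CO2 before 72 hours of exposure to two-drug dose matrices, with DMSO typically at 0.2%. CellTiter-Glo 2.0 luminescence gave viability, which was converted to inhibition. Vehicle wells were set to 0 and blank wells to 1. Combination Emax is the second-highest inhibition in the matrix, and Bliss excess is the observed combination effect minus the expected EA + EB − EA·EB, where EA and EB are the single-agent effects.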

[2] = system: huH-1 (Hepatocellular Carcinoma); experiment: as above
Procedure, shortened: as §1

[3] = system: SK-HEP-1 (Hepatocellular Carcinoma); experiment: as above
Procedure, shortened: as §1

769-P (Kidney Carcinoma) = experiment: as above
Procedure, shortened: as §1

[4] = system: SW620 (Colorectal Carcinoma); experiment: as above
Procedure, shortened: as §1

AU565 (Breast Carcinoma) = experiment: combination Emax (second highest fraction inhibited in the dose matrix, 72 h); higher = more inhibition; extreme values may be limits of the assay
Procedure, shortened: as §1

[5] = system: CAL-27 (Oral Cavity Carcinoma); experiment: as above
Procedure, shortened: as §1

[6] = system: NCI-H1651 (Lung Adenocarcinoma); experiment: as above
Procedure, shortened: as §1

NB13 (Neuroblastoma) = experiment: as above
Procedure, shortened: as §1

[7] = system: Jurkat (T-Lymphoblastic Leukemia); experiment: as above
Procedure, shortened: as §1

HCC70 (Breast Carcinoma) = experiment: as above
Procedure, shortened: as §1

[8] = system: 22RV1 (Prostate Carcinoma); experiment: as above
Procedure, shortened: as §1

[9] = system: NCI-H2228 (Lung Adenocarcinoma); experiment: as above
Procedure, shortened: as §1

[10] = system: A253 (Head and Neck Carcinoma); experiment: as above
Procedure, shortened: as §1

[11] = system: NCI-H2087 (Lung Adenocarcinoma); experiment: as above
Procedure, shortened: as §1

[12] = system: JHU-022 (Oral Cavity Carcinoma); experiment: as above
Procedure, shortened: as §1

[13] = system: GCT (Other Solid Carcinomas); experiment: as above
Procedure, shortened: as §1

WM1552C (Melanoma) = experiment: as above
Procedure, shortened: as §1

[14] = system: JIMT-1 (Breast Carcinoma); experiment: as above
Procedure, shortened: as §1

[15] = system: CESS (Acute Myeloid Leukemia); experiment: as above
Procedure, shortened: as §1
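Wherever Bliss excess, mean over the matrix is given: after 72 h of two-drug dosing.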

SMILES | Bliss excess [1] | Bliss excess [2] | Bliss excess [3] | Bliss excess (769-P (Kidney Carcinoma)) | Bliss excess [4] | combination Emax (AU565 (Breast Carcinoma)) | combination Emax [5] | combination Emax [6] | combination Emax (NB13 (Neuroblastoma)) | combination Emax [7] | combination Emax (HCC70 (Breast Carcinoma)) | combination Emax [8] | combination Emax [9] | combination Emax [10] | combination Emax [11] | combination Emax [12] | combination Emax [13] | combination Emax (WM1552C (Melanoma)) | combination Emax [14] | combination Emax [15]
NC1(C(=O)N[C@@H](CCO)c2ccc(Cl)cc2)CCN(c2ncnc3[nH]ccc23)CC1 [Capivasertib] + CC(=O)c1c(C)c2cnc(Nc3ccc(N4CCNCC4)cn3)nc2n(C2CCCC2)c1=O [Palbociclib] (first compound max 10 µM, 7x7, partner max 10 µM) | -0.0427 | -0.0462 | -0.109 | -0.0257 | -0.019 | 0.505 | 0.69 | 0.0542 | 0.392 | 0.849 | 0.657 | 0.639 | 0.506 | 0.673 | 0.244 | 0.471 | 0.718 | 0.427 | 0.246 | 0.708
CCN(CCO)CCCOc1ccc2c(Nc3cc(CC(=O)Nc4cccc(F)c4)[nH]n3)ncnc2c1 [AZD2811] + C[C@@H]1COCCN1C2=NC(=NC(=C2)C3(CC3)[S@](=N)(=O)C)C4=C5C=CNC5=NC=C4 [AZD6738] (first compound max 1 µM, 7x7, partner max 10 µM) | 0.0008 | -0.0294 | -0.0397 | -0.0107 | -0.0451 | 0.362 | 0.515 | 0.56 | 0.941 | 0.865 | 0.797 | 0.566 | 0.517 | 0.756 | 0.662 | 0.535 | 0.242 | 0.642 | 0.677 | 0.893
COc1cccc(OCCCN)c1-c1cc(Nc2cnc(C#N)cn2)n[nH]1 [Prexasertib] + CN(C)CCCOc1ccc(-c2ccc3ncc4c(c3c2)n(C2CCOCC2)c(=O)n4C)cn1 [AZD0156] (first compound max 1 µM, 7x7, partner max 1 µM) | -0.0129 | -0.0422 | -0.0206 | 0.0193 | -0.0032 | 0.714 | 0.421 | 0.677 | 0.935 | 0.992 | 0.922 | 0.532 | 0.664 | 0.774 | 0.761 | 0.659 | 0.324 | 0.844 | 0.869 | 0.975
CC1(C)CCC(CN2CCN(c3ccc(C(=O)NS(=O)(=O)c4ccc(NCC5CCOCC5)c([N+](=O)[O-])c4)c(Oc4cnc5[nH]ccc5c4)c3)CC2)=C(c2ccc(Cl)cc2)C1 [Venetoclax] + COc1cc(Nc2ncc3c(n2)-c2ccc(Cl)cc2C(c2c(F)cccc2OC)=NC3)ccc1C(=O)O [Alisertib] (first compound max 1 µM, 7x7, partner max 10 µM) | 0.0471 | -0.02 | -0.0578 | 0.0339 | -0.0335 | 0.504 | 0.689 | 0.269 | 0.932 | 0.741 | 0.412 | 0.329 | 0.396 | 0.444 | 0.177 | 0.382 | 0.463 | 0.508 | 0.268 | 0.89
COc1cccc(OCCCN)c1-c1cc(Nc2cnc(C#N)cn2)n[nH]1 [Prexasertib] + C=CCn1c(=O)c2cnc(Nc3ccc(N4CCN(C)CC4)cc3)nc2n1-c1cccc(C(C)(C)O)n1 [AZD1775] (first compound max 1 µM, partner max 1 µM) | 0.0329 | 0.0613 | 0.0775 | 0.0163 | 0.0478 | 0.891 | 0.777 | 0.822 | 0.935 | 1 | 0.955 | 0.619 | 0.719 | 0.93 | 0.804 | 0.624 | 0.644 | 0.885 | 0.869 | 0.966
COc1nnc2ccc(N3CCC(c4ccc(OCCN5CCN(C)C(=O)[C@H]5C)cc4)CC3)nn12 [AZD5153] + CC1(C)CCC(CN2CCN(c3ccc(C(=O)NS(=O)(=O)c4ccc(NCC5CCOCC5)c([N+](=O)[O-])c4)c(Oc4cnc5[nH]ccc5c4)c3)CC2)=C(c2ccc(Cl)cc2)C1 [Venetoclax] (first compound max 1 µM, 7x7, partner max 1 µM) | -0.0597 | -0.0962 | -0.0153 | -0.0457 | -0.0671 | 0.311 | 0.504 | 0.257 | 0.474 | 0.679 | 0.309 | 0.486 | 0.288 | 0.22 | 0.389 | 0.417 | 0.595 | 0.397 | 0.311 | 0.638
